What was measured:
Assay type in all cases: in vivo
[1] = system: Barley; assay: Soil incorporation (I), barley; details: 21 days, 0=no effect, 100=complete suppression
Excerpt: (§1) Each of the compounds listed below was formulated as: […]
(§2) (I) an attaclay/sand dust and incorporated in John Innes I potting compost at a rate equivalent to 6.5 and 3.25 parts per million weight/volume of active ingredient to soil and placed in anodised aluminium pans, 19 cm long×9.5 cm wide×5.0 cm high. This is approximately equivalent to a surface application of 2.8 and 1.4 kg active ingredient per hectare cultivated to a depth of 5 cm. Seeds of the species listed below were sown in the treated soil, one species per pan, watered and placed in a controlled environment room (22° C.; 65-85% relative humidity and 14 hours artificial illumination at 17,000 lux) for 21 days.
(§3) The plants were then visually assessed for any growth regulatory or herbicidal effects. All differences from an untreated control were scored on a scale from 0-100, where 0 signifies no effect and 100 signifies complete suppression.
(§4) The results are shown in the following table where I stands for soil incorporation and II for surface spray.

[2] = system: Barnyard Grass; assay: Surface spray (II), barnyard grass; details: 21 days, 0=no effect, 100=complete suppression
Excerpt: as §1
(§5) (II) An aqueous suspension together with 1000 ppm of the wetting agent Lissapol NX. The surfaces of an additional set of pans with seeds already sown were then sprayed with 2.8 or 1.4 kg/ha in 450 liters/hectare, and the pans kept in the controlled environment room for 21 days.
as §3, §4

[3] = system: Barley; assay: Surface spray (II), barley; details: 21 days, 0=no effect, 100=complete suppression
Excerpt: as §1, §5, §3, §4

[4] = system: Rice; assay: Soil incorporation (I), rice; details: 21 days, 0=no effect, 100=complete suppression
Excerpt: as §1, §2, §3, §4

[5] = system: Wheat (Triticum aestivum); assay: Post-emergence foliar spray of monocotyledons, wheat; details: foliar spray 2.8 kg/ha, 14 days, 0=no effect, 100=complete kill
Method: (§6) Seeds of the monocotyledon species listed below were sown in anodised aluminium pans, 19 cm long×9.5 cm wide×5.0 cm deep, containing John Innes I potting compost. They were then watered and placed in a controlled environment room (22° C.; 65-85% relative humidity; 14 hours per day artificial illumination at 17,000 lux). 14 days after sowing, the seedlings were given a foliar spray of the compound of Example 44, formulated as an aqueous suspension together with 2000 ppm of the wetting agent Lissapol NX. The dosage rate was adjusted to be 2.8 kg active ingredient in 450 liters per hectare. After a further 14 days in the controlled environment room, the plants were visually assessed for any growth regulatory or herbicidal effect. All differences from an untreated control were scored on a scale from 0-100 where 0 signifies no effect and 100 signifies complete kill.
(§7) The compounds listed below were tested according to the procedure of Example 66 but including rice (Oryza sativa) as an additional test species.

[6] = system: Wheat; assay: Soil incorporation (I), wheat; details: 21 days, 0=no effect, 100=complete suppression
Excerpt: as §1, §2, §3, §4

[7] = system: Barnyardgrass (Echinochloa crus-galli); assay: Post-emergence foliar spray of monocotyledons, barnyardgrass; details: foliar spray 2.8 kg/ha, 14 days, 0=no effect, 100=complete kill
Method: as §6, §7

[8] = system: Carrot; assay: Soil incorporation (I), carrot; details: 21 days, 0=no effect, 100=complete suppression
Excerpt: as §1, §2, §3, §4

[9] = system: Tomato; assay: Soil incorporation (I), tomato; details: 21 days, 0=no effect, 100=complete suppression
Excerpt: as §1, §2, §3, §4

[10] = system: Cotton; assay: Soil incorporation (I), cotton; details: 21 days, 0=no effect, 100=complete suppression
Excerpt: as §1, §2, §3, §4

[11] = system: Barley (Hordeum vulgare); assay: Post-emergence foliar spray of monocotyledons, barley; details: foliar spray 2.8 kg/ha, 14 days, 0=no effect, 100=complete kill
Method: as §6, §7

[12] = system: Barnyard Grass; assay: Soil incorporation (I), barnyard grass; details: 21 days, 0=no effect, 100=complete suppression
Excerpt: as §1, §2, §3, §4

[13] = system: rice (Oryza sativa); assay: Post-emergence foliar spray of monocotyledons, rice; details: foliar spray 2.8 kg/ha, 14 days, 0=no effect, 100=complete kill
Method: as §6, §7

[14] = system: Cotton; assay: Surface spray (II), cotton; details: 21 days, 0=no effect, 100=complete suppression
Excerpt: as §1, §5, §3, §4

[15] = system: Tomato; assay: Surface spray (II), tomato; details: 21 days, 0=no effect, 100=complete suppression
Excerpt: as §1, §5, §3, §4

[16] = system: Rice; assay: Surface spray (II), rice; details: 21 days, 0=no effect, 100=complete suppression
Excerpt: as §1, §5, §3, §4

[17] = system: Wheat; assay: Surface spray (II), wheat; details: 21 days, 0=no effect, 100=complete suppression
Excerpt: as §1, §5, §3, §4

[18] = system: Carrot; assay: Surface spray (II), carrot; details: 21 days, 0=no effect, 100=complete suppression
Excerpt: as §1, §5, §3, §4

Row | Structure (SMILES) | growth regulatory or herbicidal effect score ([1]; I soil incorporation 3.25 ppm) | growth regulatory or herbicidal effect score ([1]; I soil incorporation 6.5 ppm) | growth regulatory or herbicidal effect score ([2]; row 3.25 ppm (1.4 kg/ha)) | growth regulatory or herbicidal effect score ([2]; row 6.5 ppm (2.8 kg/ha)) | growth regulatory or herbicidal effect score ([3]; row 3.25 ppm (1.4 kg/ha)) | growth regulatory or herbicidal effect score ([3]; row 6.5 ppm (2.8 kg/ha)) | growth regulatory or herbicidal effect score ([4]; I soil incorporation 3.25 ppm) | growth regulatory or herbicidal effect score ([4]; I soil incorporation 6.5 ppm) | growth regulatory or herbicidal effect score [5] | growth regulatory or herbicidal effect score ([6]; I soil incorporation 3.25 ppm) | growth regulatory or herbicidal effect score ([6]; I soil incorporation 6.5 ppm) | growth regulatory or herbicidal effect score [7] | growth regulatory or herbicidal effect score ([9]; I soil incorporation 3.25 ppm) | growth regulatory or herbicidal effect score ([9]; I soil incorporation 6.5 ppm) | growth regulatory or herbicidal effect score ([10]; I soil incorporation 3.25 ppm) | growth regulatory or herbicidal effect score ([10]; I soil incorporation 6.5 ppm) | growth regulatory or herbicidal effect score [11] | growth regulatory or herbicidal effect score ([12]; I soil incorporation 3.25 ppm) | growth regulatory or herbicidal effect score ([12]; I soil incorporation 6.5 ppm) | growth regulatory or herbicidal effect score [13] | further results
1 | CS(=O)(=O)N(CC(N)=S)c1ccc(Cl)c(Cl)c1 [Example 85, N-(thiocarbamoylmethyl)-3,4-dichloromethanesulphonanilide] | 0 | 0 | 90 | 100 | 0 | 0 | 0 | 0 | 0 | 0 | 0 | 90 | 0 | 0 | 0 | 0 | 0 | 90 | 90 | 0 | growth regulatory or herbicidal effect score ([8]; I soil incorporation 3.25 ppm): 0; growth regulatory or herbicidal effect score ([8]; I soil incorporation 6.5 ppm): 0; growth regulatory or herbicidal effect score ([14]; row 3.25 ppm (1.4 kg/ha)): 0; growth regulatory or herbicidal effect score ([14]; row 6.5 ppm (2.8 kg/ha)): 0; growth regulatory or herbicidal effect score ([15]; row 3.25 ppm (1.4 kg/ha)): 0; growth regulatory or herbicidal effect score ([15]; row 6.5 ppm (2.8 kg/ha)): 0; growth regulatory or herbicidal effect score ([16]; row 3.25 ppm (1.4 kg/ha)): 0; growth regulatory or herbicidal effect score ([16]; row 6.5 ppm (2.8 kg/ha)): 0; growth regulatory or herbicidal effect score ([17]; row 3.25 ppm (1.4 kg/ha)): 0; growth regulatory or herbicidal effect score ([17]; row 6.5 ppm (2.8 kg/ha)): 0; growth regulatory or herbicidal effect score ([18]; row 3.25 ppm (1.4 kg/ha)): 0; growth regulatory or herbicidal effect score ([18]; row 6.5 ppm (2.8 kg/ha)): 0
2 | Cc1ccc(N(CC#N)S(C)(=O)=O)cc1Cl [Example 131] | 0 | 0 | 60 | 80 | 0 | 0 | 0 | 0 | 5 | 0 | 0 | 90 | 0 | 0 | 0 | 0 | 10 | 50 | 70 | 0 | growth regulatory or herbicidal effect score ([8]; I soil incorporation 3.25 ppm): 0; growth regulatory or herbicidal effect score ([8]; I soil incorporation 6.5 ppm): 0; growth regulatory or herbicidal effect score ([14]; row 3.25 ppm (1.4 kg/ha)): 0; growth regulatory or herbicidal effect score ([14]; row 6.5 ppm (2.8 kg/ha)): 0; growth regulatory or herbicidal effect score ([15]; row 3.25 ppm (1.4 kg/ha)): 0; growth regulatory or herbicidal effect score ([15]; row 6.5 ppm (2.8 kg/ha)): 0; growth regulatory or herbicidal effect score ([16]; row 3.25 ppm (1.4 kg/ha)): 0; growth regulatory or herbicidal effect score ([16]; row 6.5 ppm (2.8 kg/ha)): 0; growth regulatory or herbicidal effect score ([17]; row 3.25 ppm (1.4 kg/ha)): 0; growth regulatory or herbicidal effect score ([17]; row 6.5 ppm (2.8 kg/ha)): 0; growth regulatory or herbicidal effect score ([18]; row 3.25 ppm (1.4 kg/ha)): 0; growth regulatory or herbicidal effect score ([18]; row 6.5 ppm (2.8 kg/ha)): 0
3 | CCS(=O)(=O)N(CC(N)=S)c1ccc(Cl)c(Cl)c1 [Example 156] | 0 | 0 | 80 | 100 | 0 | 0 | 0 | 0 | 0 | 0 | 0 | 90 | 0 | 0 | 0 | 0 | 0 | 70 | 90 | 0 | growth regulatory or herbicidal effect score ([14]; row 3.25 ppm (1.4 kg/ha)): 0; growth regulatory or herbicidal effect score ([14]; row 6.5 ppm (2.8 kg/ha)): 0; growth regulatory or herbicidal effect score ([15]; row 3.25 ppm (1.4 kg/ha)): 0; growth regulatory or herbicidal effect score ([15]; row 6.5 ppm (2.8 kg/ha)): 0; growth regulatory or herbicidal effect score ([16]; row 3.25 ppm (1.4 kg/ha)): 0; growth regulatory or herbicidal effect score ([16]; row 6.5 ppm (2.8 kg/ha)): 0; growth regulatory or herbicidal effect score ([17]; row 3.25 ppm (1.4 kg/ha)): 0; growth regulatory or herbicidal effect score ([17]; row 6.5 ppm (2.8 kg/ha)): 0

From US4309559A, “Sulphonamides useful as pesticides” (FBC Limited, priority 1977, dated 1982)
